In patent publication US20050277630A1, “Antibacterial agents” (priority 2003, published 2005):
In brackets after ≈: the same amount, converted by molar mass.

Assays:
[1] = system: S. aureus UC-76; test: Antibacterial assay (Test A), standard microtitration, MIC; type: cell-based; settings: Gram Positive Bacteria, strain UC-76; for MIC: Staphylococcus aureus, UC76
Description: (§1) The compounds of the present invention were tested against an assortment of Gram-negative and Gram-positive organisms using standard microtitration techniques (Cohen et. al., Antimicrob., 1985; 28: 766; Heifetz, et. al., Antimicrob., 1974; 6: 124).

[2] = system: E. coli Tol C; test: as above; type: cell-based; settings: for MIC E. coli Tol C: Gram Negative Bacteria, strain Tol C; for MIC: Escherichia coli, read-out: MIC E. coli Tol C
Description: as §1

[3] = system: E. faecalis MGH-2; test: as above; type: cell-based; settings: Gram Positive Bacteria, strain MGH-2; for MIC: Enterococcus faecalis, MGH2
Description: as §1

[4] = system: S pyogenes C203; test: as above; type: cell-based; settings: Gram Positive Bacteria; strain C203
Description: as §1

[5] = system: M. catarrhalis BC3534; test: as above; type: cell-based; settings: strain BC3534; for MIC M. catarrhalis BC3534: Gram Negative Bacteria; for MIC: Moraxella catarrhalis, BC3534, Gram Negative Bacteria
Description: as §1

[6] = system: H. influenzae HI3542; test: as above; type: cell-based; settings: Gram Negative Bacteria, strain HI3542; for MIC: Haemophilus influenzae
Description: as §1

In the case of `CC(=O)NC[C@H]1CN(c2ccc3c(c2)CCSC(=CN(C)C)C3=O)C(=O)O1`, the melting point is reported as 221 to 222 °C.

In the case of “(S)—N-[2-Oxo-3-(2-phenethyl-4,5-dihydro-2H-6-oxa-1,2-diaza-benzo[e]azulen-8-yl)-oxazolidin-5-ylmethyl]-acetamide and (S)—N-[2-Oxo-3-(1-phenethyl-4,5-dihydro-1H-6-oxa-1,2-diaza-benzo[e]azulen-8-yl)-oxazolidin-5-ylmethyl]-acetamide [Example 42]”, the “MIC S. aureus UC-76” value [1] is reported as 32 µg/mL, the “MIC E. coli Tol C” value [2] is reported as >64 µg/mL and the “MIC E. faecalis MGH-2” value [3] is reported as 32 µg/mL. The “MIC S pyogenes C203” value [4] was 32 µg/mL, the “MIC M. catarrhalis BC3534” value [5] was >64 µg/mL and the “MIC H. influenzae HI3542” value [6] was >64 µg/mL.

With `CC(=O)NC[C@H]1CN(c2ccc3c(c2)OCCc2cn[nH]c2-3)C(=O)O1` [drawing 124] the “MIC E. coli Tol C” value [2] was >64 µg/mL, the “MIC M. catarrhalis BC3534” value [5] was 16 µg/mL (≈ 46.7 µM) and the “MIC H. influenzae HI3542” value [6] was 8 µg/mL (≈ 23.4 µM).

For `CC(=O)NC[C@H]1CN(c2ccc3c(c2)OCCc2cn(C)nc2-3)C(=O)O1` [Example 39, (S)—N-[3-(2-Methyl4,5-dihydro-2H-6-oxa-1,2-diaza-benzo[e]azulen-8-yl)-2-oxo-oxazolidin-5-ylmethyl]-acetamide], the MIC [1] was > 64 µg/mL, the MIC [2] was > 64 µg/mL and the MIC [3] was 32 µg/mL (≈ 89.8 µM). For the same compound, the MIC [4] was 32 µg/mL (≈ 89.8 µM), the MIC [5] was > 64 µg/mL and the MIC [6] was > 64 µg/mL.

Work on `CC(=O)NC[C@H]1CN(c2ccc3c(c2)CCS(=O)(=O)c2cnoc2-3)C(=O)O1` yielded a melting point of 211 to 212 °C.

For `CC(=O)NC[C@H]1CN(c2ccc3c(c2)CCC(N)C(=O)N3)C(=O)O1` (stereo partly drawn), the melting point was > 160 °C (dec.).

For `CC(=O)NC[C@H]1CN(c2ccc3c(c2)OCCc2c(-c4ccc(F)cc4)n[nH]c2-3)C(=O)O1`, the MIC [1] was 1 µg/mL (≈ 2.29 µM), the MIC [3] was 1 µg/mL (≈ 2.29 µM) and the MIC [4] was 0.5 µg/mL (≈ 1.15 µM).

Work on `CC(=O)NC[C@H]1CN(c2ccc3c(c2)CCSc2cn[nH]c2-3)C(=O)O1` yielded a melting point of 186 to 187 °C.

With `CC(=O)NC[C@H]1CN(c2ccc3c(c2)CCNC(=O)N3)C(=O)O1` the melting point was 177 to 178 °C.

Compound `CC(=O)NC[C@H]1CN(c2ccc3c(c2)CCS(=O)(=O)C(=CN(C)C)C3=O)C(=O)O1` has a melting point of 261 to 263 °C.

In the case of `CC(=O)NC[C@H]1CN(c2ccc3c(c2)OCCc2cnoc2-3)C(=O)O1` [Example 38, (S)—N-[3-(4,5-Dihydro-1,6-dioxa-2-aza-benzo[e]azulen-8-yl)-2-oxo-oxazolidin-5-ylmethyl]-acetamide], the MIC [1] is reported as 1 µg/mL (≈ 2.91 µM), the MIC [2] is reported as > 64 µg/mL and the MIC [3] is reported as 1 µg/mL (≈ 2.91 µM). It also gave an MIC [4] of 0.5 µg/mL (≈ 1.46 µM) and an MIC [6] of 4 µg/mL (≈ 11.7 µM).

In the case of `CC(=O)NC[C@H]1CN(c2ccc3c(c2)CCS(=O)(=O)c2cn[nH]c2-3)C(=O)O1`, the melting point is reported as 292 to 293 °C.

In the case of `CC(=O)NC[C@H]1CN(c2ccc3c(c2)CCS(=O)(=O)c2cnc(N)nc2-3)C(=O)O1`, the melting point is reported as 211 to 213 °C (dec.).

In the case of `CC(=O)NC[C@H]1CN(c2ccc3c(c2)OCCc2c(-c4ccncc4)n[nH]c2-3)C(=O)O1` [Example 22, (S)—N-[2-Oxo-3-(3-pyridin-4-yl-4,5-dihydro-1H-6-oxa-1,2-diaza-benzo[e]azulen-8-yl)-oxazolidin-5-ylmethyl]-acetamide], the MIC [1] is reported as 4 µg/mL (≈ 9.54 µM), the MIC [2] is reported as > 64 µg/mL and the MIC [3] is reported as 4 µg/mL (≈ 9.54 µM). The MIC [4] was 1 µg/mL (≈ 2.38 µM), the MIC [5] was > 64 µg/mL and the MIC [6] was 4 µg/mL (≈ 9.54 µM).

For “(S)—N-[3-(2-Benzyl-4,5-dihydro-2H-6-oxa-1,2-diaza-benzo[e]azulen-8-yl)-2-oxo-oxazolidin-5-ylmethyl]-acetamide and (S)—N-[3-(1-Benzyl-4,5-dihydro-1H-6-oxa-1,2-diaza-benzo[e]azulen-8-yl)-2-oxo-oxazolidin-5-ylmethyl]-acetamide [Example 41]”, the “MIC S. aureus UC-76” value [1] was >64 µg/mL, the “MIC E. coli Tol C” value [2] was >64 µg/mL and the “MIC E. faecalis MGH-2” value [3] was >64 µg/mL. For the same compound, the “MIC S pyogenes C203” value [4] was 32 µg/mL, the “MIC M. catarrhalis BC3534” value [5] was >64 µg/mL and the “MIC H. influenzae HI3542” value [6] was >64 µg/mL.

With “(S)—N-[3-(2-Ethyl-4,5-dihydro-2H-6-oxa-1,2-diaza-benzo[e]azulen-8-yl)-2-oxo-oxazolidin-5-ylmethyl]-acetamide and (S)—N-[3-(1-Ethyl-4,5-dihydro-1H-6-oxa-1,2-diaza-benzo[e]azulen-8-yl)-2-oxo-oxazolidin-5-ylmethyl]-acetamide [Example 40]” the “MIC S. aureus UC-76” value [1] was >64 µg/mL, the “MIC E. coli Tol C” value [2] was >64 µg/mL and the “MIC E. faecalis MGH-2” value [3] was >64 µg/mL. For the same compound, the “MIC S pyogenes C203” value [4] was 32 µg/mL, the “MIC M. catarrhalis BC3534” value [5] was >64 µg/mL and the “MIC H. influenzae HI3542” value [6] was >64 µg/mL.

For `CC(=O)NC[C@H]1CN(c2ccc3c(c2)CCSc2cnc(N)nc2-3)C(=O)O1`, the melting point was 190 to 191 °C (dec.).

Compound `CC(=O)NC[C@H]1CN(c2ccc3c(c2)CCSCC3=O)C(=O)O1` has a melting point of 232 to 233 °C.

For `CC(=O)NC[C@H]1CN(c2ccc3c(c2)OCCc2cn[nH]c2-3)C(=O)O1` [Example 37, (S)—N-[3-(4,5-Dihydro-1H-6-oxa-1,2-diaza-benzo[e]azulen-8-yl)-2-oxo-oxazolidin-5-ylmethyl]-acetamide], the MIC [1] was 2 µg/mL (≈ 5.84 µM), the MIC [2] was > 64 µg/mL and the MIC [3] was 2 µg/mL (≈ 5.84 µM). The MIC [4] was 0.5 µg/mL (≈ 1.46 µM), the “MIC M. catarrhalis BC3534” value [5] was 4 µg/mL (≈ 11.7 µM) and the MIC [6] was 8 µg/mL (≈ 23.4 µM).
